Paper PMC9288506, “Compounds activating VCP D1 ATPase enhance both autophagic and proteasomal neurotoxic protein clearance” (Nature Communications, 2022)

Target: T1, VCP (p97, Valosin-containing protein) (Homo sapiens, UniProt P55072)
T1 construct: Full-length VCP (6xHis-tag)
Assay: SPR
Type: binding

T1 sequence (P55072 2-806): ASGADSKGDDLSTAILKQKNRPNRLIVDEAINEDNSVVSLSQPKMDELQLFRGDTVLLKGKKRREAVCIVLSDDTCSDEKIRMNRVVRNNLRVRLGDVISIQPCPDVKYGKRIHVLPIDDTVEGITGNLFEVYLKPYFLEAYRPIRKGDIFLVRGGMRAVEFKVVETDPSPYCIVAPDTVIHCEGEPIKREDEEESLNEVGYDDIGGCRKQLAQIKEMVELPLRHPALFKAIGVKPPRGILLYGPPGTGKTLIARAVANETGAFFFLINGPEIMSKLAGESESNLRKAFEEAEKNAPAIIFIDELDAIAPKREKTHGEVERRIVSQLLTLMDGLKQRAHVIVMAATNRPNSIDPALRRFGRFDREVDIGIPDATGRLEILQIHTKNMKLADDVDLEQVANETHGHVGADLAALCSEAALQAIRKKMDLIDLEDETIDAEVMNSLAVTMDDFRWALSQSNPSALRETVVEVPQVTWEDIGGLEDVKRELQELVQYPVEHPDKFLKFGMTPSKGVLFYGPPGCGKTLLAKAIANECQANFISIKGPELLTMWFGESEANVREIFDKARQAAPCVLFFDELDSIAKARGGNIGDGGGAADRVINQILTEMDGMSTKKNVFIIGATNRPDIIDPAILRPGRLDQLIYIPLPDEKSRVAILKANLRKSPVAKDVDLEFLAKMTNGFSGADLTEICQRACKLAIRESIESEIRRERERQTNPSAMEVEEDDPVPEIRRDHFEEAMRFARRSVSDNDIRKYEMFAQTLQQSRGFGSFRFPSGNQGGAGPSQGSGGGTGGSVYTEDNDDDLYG

| Compound | Kd [nM] |
| --- | --- |
| COc1cccc2c(NCc3ccccc3)nc(-n3c(N)nc4ccccc43)nc12 [ML240] | 230 ± 30 |
| Nc1ncnc2c1ncn2[C@@H]1O[C@H](COP(=O)(O)OP(=O)(O)O)[C@@H](O)[C@H]1O [ADP] | ~800 |
